In ChEMBL document CHEMBL4831486, “Design, synthesis and biological evaluation of pleuromutilin-Schiff base hybrids as potent anti-MRSA agents in vitro and in vivo” (Eur J Med Chem, 2021):
≈ marks a conversion by molar mass, not a printed value.

Legend:
Staphylococcus aureus [1] = assay: Antibacterial activity against Methycillin-resistant Staphylococcus aureus ATCC 43300 assessed as inhibition of bacterial growth measured after 24 hrs by broth dilution method; type: functional
Staphylococcus aureus [2] = assay: Antibacterial activity against Staphylococcus aureus ATCC 29213 assessed as inhibition of bacterial growth measured after 24 hrs by broth dilution method; type: functional
Staphylococcus aureus [3] = assay: Antibacterial activity against Staphylococcus aureus AD3 assessed as inhibition of bacterial growth measured after 24 hrs by broth dilution method; type: functional
Staphylococcus aureus [4] = assay: Antibacterial activity against Staphylococcus aureus 144 assessed as inhibition of bacterial growth measured after 24 hrs by broth dilution method; type: functional
Escherichia coli [5] = assay: Antibacterial activity against Escherichia coli ATCC 25922 assessed as inhibition of bacterial growth measured after 24 hrs by broth dilution method; type: functional
Staphylococcus aureus [6] = assay: Bactericidal activity against Methycillin-resistant Staphylococcus aureus ATCC 43300 assessed as inhibition of bacterial growth measured after 96 hrs by broth dilution method; type: functional
Staphylococcus aureus [7] = assay: Bactericidal activity against Staphylococcus aureus ATCC 29213 assessed as inhibition of bacterial growth measured after 96 hrs by broth dilution method; type: functional
Staphylococcus aureus [8] = assay: Bactericidal activity against Staphylococcus aureus AD3 assessed as inhibition of bacterial growth measured after 96 hrs by broth dilution method; type: functional
Staphylococcus aureus [9] = assay: Bactericidal activity against Staphylococcus aureus 144 assessed as inhibition of bacterial growth measured after 96 hrs by broth dilution method; type: functional
Escherichia coli [10] = assay: Bactericidal activity against Escherichia coli ATCC 25922 assessed as inhibition of bacterial growth measured after 96 hrs by broth dilution method; type: functional
RAW264.7 = assay: Cytotoxicity against mouse RAW264.7 cells assessed as reduced cell viability at 4 ug/ml measured after 16 hrs by MTT assay; type: cell-based; conditions: raw264.7, 16 h, dose 4 µg/ml
HepG2 = assay: Cytotoxicity against human HepG2 cells assessed as reduced cell viability at 4 ug/ml measured after 16 hrs by MTT assay; type: cell-based; conditions: hepg2, 16 h, dose 4 µg/ml

Row | SMILES | MIC (Staphylococcus aureus [1]) [µg/mL] | MIC (Staphylococcus aureus [2]) [µg/mL] | MIC (Staphylococcus aureus [3]) [µg/mL] | MIC (Staphylococcus aureus [4]) [µg/mL] | MIC (Escherichia coli [5]) [µg/mL] | MBC (Staphylococcus aureus [6]) [µg/mL] | MBC (Staphylococcus aureus [7]) [µg/mL] | MBC (Staphylococcus aureus [8]) [µg/mL] | MBC (Staphylococcus aureus [9]) [µg/mL] | MBC (Escherichia coli [10]) [µg/mL] | Activity (RAW264.7) | Activity (HepG2)
1 | C=C[C@]1(C)C[C@@H](OC(=O)CSc2nnc(C)n2/N=C/c2cccc([N+](=O)[O-])c2)[C@]2(C)[C@H](C)CC[C@]3(CCC(=O)[C@H]32)[C@@H](C)[C@@H]1O | 1 (≈ 1.6 µM) | 2 (≈ 3.21 µM) | 2 (≈ 3.21 µM) | 2 (≈ 3.21 µM) | > 64 | 2 (≈ 3.21 µM) | 8 (≈ 12.8 µM) | 8 (≈ 12.8 µM) | 4 (≈ 6.41 µM) | > 64 | Non-Toxic | Non-Toxic
2 | C=C[C@]1(C)C[C@@H](OC(=O)CSc2nnc(C)n2/N=C/c2ccccc2C)[C@]2(C)[C@H](C)CC[C@]3(CCC(=O)[C@H]32)[C@@H](C)[C@@H]1O | 1 (≈ 1.69 µM) | 1 (≈ 1.69 µM) | 1 (≈ 1.69 µM) | 2 (≈ 3.37 µM) | > 64 | 2 (≈ 3.37 µM) | 2 (≈ 3.37 µM) | 4 (≈ 6.75 µM) | 4 (≈ 6.75 µM) | > 64 | Non-Toxic | Non-Toxic
3 | C=C[C@]1(C)C[C@@H](OC(=O)CSc2nnc(C)n2/N=C/c2cccc(Cl)c2)[C@]2(C)[C@H](C)CC[C@]3(CCC(=O)[C@H]32)[C@@H](C)[C@@H]1O | 1 (≈ 1.63 µM) | 1 (≈ 1.63 µM) | 2 (≈ 3.26 µM) | 2 (≈ 3.26 µM) | > 64 | 2 (≈ 3.26 µM) | 4 (≈ 6.52 µM) | 4 (≈ 6.52 µM) | 4 (≈ 6.52 µM) | > 64 | Non-Toxic | Non-Toxic
4 | C=C[C@]1(C)C[C@@H](OC(=O)CSc2nnc(C)n2/N=C/c2ccc(Cl)cc2)[C@]2(C)[C@H](C)CC[C@]3(CCC(=O)[C@H]32)[C@@H](C)[C@@H]1O | 0.5 (≈ 0.815 µM) | 1 (≈ 1.63 µM) | 1 (≈ 1.63 µM) | 2 (≈ 3.26 µM) | > 64 | 2 (≈ 3.26 µM) | 2 (≈ 3.26 µM) | 4 (≈ 6.52 µM) | 4 (≈ 6.52 µM) | > 64 | Non-Toxic | Non-Toxic
5 | C=C[C@]1(C)C[C@@H](OC(=O)CSc2nnc(C)n2/N=C/c2ccccc2)[C@]2(C)[C@H](C)CC[C@]3(CCC(=O)[C@H]32)[C@@H](C)[C@@H]1O | 0.5 (≈ 0.864 µM) | 1 (≈ 1.73 µM) | 1 (≈ 1.73 µM) | 2 (≈ 3.46 µM) | > 64 | 1 (≈ 1.73 µM) | 2 (≈ 3.46 µM) | 4 (≈ 6.91 µM) | 4 (≈ 6.91 µM) | > 64 | Non-Toxic | Non-Toxic
6 | C=C[C@]1(C)C[C@@H](OC(=O)CSc2nnc(C)n2/N=C/c2ccc([N+](=O)[O-])cc2)[C@]2(C)[C@H](C)CC[C@]3(CCC(=O)[C@H]32)[C@@H](C)[C@@H]1O | 1 (≈ 1.6 µM) | 2 (≈ 3.21 µM) | 2 (≈ 3.21 µM) | 2 (≈ 3.21 µM) | > 64 | 2 (≈ 3.21 µM) | 4 (≈ 6.41 µM) | 8 (≈ 12.8 µM) | 8 (≈ 12.8 µM) | > 64 | Non-Toxic | Non-Toxic
7 | C=C[C@]1(C)C[C@@H](OC(=O)CSc2nnc(C)n2/N=C/c2cccc(O)c2)[C@]2(C)[C@H](C)CC[C@]3(CCC(=O)[C@H]32)[C@@H](C)[C@@H]1O | 0.5 (≈ 0.841 µM) | 0.5 (≈ 0.841 µM) | 1 (≈ 1.68 µM) | 2 (≈ 3.36 µM) | > 64 | 1 (≈ 1.68 µM) | 2 (≈ 3.36 µM) | 4 (≈ 6.73 µM) | 4 (≈ 6.73 µM) | > 64 | Non-Toxic | Non-Toxic
8 | C=C[C@]1(C)C[C@@H](OC(=O)CSc2nnc(C)n2/N=C/c2cccc(F)c2)[C@]2(C)[C@H](C)CC[C@]3(CCC(=O)[C@H]32)[C@@H](C)[C@@H]1O | 0.5 (≈ 0.838 µM) | 1 (≈ 1.68 µM) | 1 (≈ 1.68 µM) | 2 (≈ 3.35 µM) | > 64 | 1 (≈ 1.68 µM) | 4 (≈ 6.7 µM) | 4 (≈ 6.7 µM) | 4 (≈ 6.7 µM) | > 64 | Non-Toxic | Non-Toxic
9 | C=C[C@]1(C)C[C@@H](OC(=O)CSc2nnc(C)n2/N=C/c2ccccc2F)[C@]2(C)[C@H](C)CC[C@]3(CCC(=O)[C@H]32)[C@@H](C)[C@@H]1O | 0.5 (≈ 0.838 µM) | 1 (≈ 1.68 µM) | 1 (≈ 1.68 µM) | 2 (≈ 3.35 µM) | > 64 | 1 (≈ 1.68 µM) | 2 (≈ 3.35 µM) | 4 (≈ 6.7 µM) | 4 (≈ 6.7 µM) | > 64 | Non-Toxic | Non-Toxic
10 | C=C[C@]1(C)C[C@@H](OC(=O)CO)[C@]2(C)[C@H](C)CC[C@]3(CCC(=O)[C@H]32)[C@@H](C)[C@@H]1O [PLEUROMULIN] | 2 (≈ 5.28 µM) | 2 (≈ 5.28 µM) | 2 (≈ 5.28 µM) | 2 (≈ 5.28 µM) | > 64 | 4 (≈ 10.6 µM) | 4 (≈ 10.6 µM) | 4 (≈ 10.6 µM) | 4 (≈ 10.6 µM) | > 64 |  | 
